The values that follow come from patent US4710498A, “Pyridyloxy derivatives” (Ikeda Mohando Co., Ltd., priority 1984, dated 1987).

Series [1] concerns Gastric Acid Secretion Induced by Histamine. Briefly: Inhibition effect on gastric acid secretion induced by histamine in pylorus ligated rat (subcutaneous). The format is in vivo, male Wistar rat. The note with it: Rattus norvegicus; 0.2 mg/kg SC; histamine 3 mg/kg SC; average of five runs; read-out: Secretion of Gastric Acid in Rat, Inhibition Rate (%). How it is done: (§1) A male Wistar rat having a body weight of about 160 g and which had not fed for 24 hours was anesthetized by an intraperitoneal dose of 1.2 g/kg of urethane. After ligating of pylorus and esophagus, the gaster anterior was incised and fitting with a double polyethylene cannula. The wall of the stomach was rinsed with 5 ml of saline at 30 minutes intervals, and the quantity of gastric acid contained in each rinsing solution was measured by titration.
The basal acid secretion was initially measured three times, and then 0.2 mg/kg of each of the compounds of this invention was administered subcutaneously and 3 mg/kg of histamine was administered subcutaneously after the lapse of an additional 30 minutes.
(§2) The quantity of gastric acid secreted after the operation was measured continuously for 3 hours. Within that measurement interval, three time points at which the increase in acid secretion reached a maximum level were selected, and the average quantity of gastric acid secreted at those time points was taken as the increase in acid secretion, which was compared with the increase in acid secretion of the control group to calculate the percent inhibition for secretion of gastric acid (Table 1). [formula] (The result was shown as the average value of five runs.)

For series [2] the test system is unchanged. Briefly: Inhibitory effect of intraduodenally administered compounds on gastric acid secretion induced by histamine in rat. The format is in vivo, male Wistar rat. Particulars: for ED50: Rattus norvegicus, intraduodenal, 30 minutes before histamine SC, read-out: Median effective dose (ED50) inhibiting Gastric Acid Section (95% Reliability Limit); for Efficacy Ratio relative to Cimetidine (Cimetidine = 1): rat, in vivo. As for the experimental part: The test was conducted by an improved method based on that reported by Watanabe et al., in "Pharmacometrics", Vol. 3, No. (1), pages 7 to 14 (1969).
as §1, §2

Series [3] in a line: Acute toxicity test on mice dosed orally. The format is in vivo. Particulars: mouse, in vivo, po. How it is done:
(§3) Male ddy mice each having a body weight of about 22 g and which had not eaten for 8 hours were orally dosed with the test samples, and the general symptoms and fatalities were observed from the time immediately following the administration to 14 days after the administration.
(§4) The median lethal dose (LD50) was calculated in accordance with the Litchfield and Wilcoxon Method.

For a further series, the target named is T1, Histamine H2 -Receptor (Cavia porcellus, UniProt P47747).
T1 construct: from tissue; host or cells: isolated right atrium of male Hartley guinea pig
Kind of series: biochemical. Also noted: species or system male Hartley guinea pig. Particulars: negative logarithm of molar concentration; isolated guinea pig atrium; read-out: Antagonistic Action against Histamine H2 -Receptor (pA2) Determined by Using Atrium isolated from Guinea Pig (converted). How it is done:
A male Hartley guinea pig having a body weight of about 400 g was killed by cervical dislocation, and the atrium thereof was isolated and was suspended in an organ bath containing […] of a modified Ringer solution and subjected to a tension of 1 g. The number of heart beats under such condition was recorded using a polygraph.
Initially, from 1×10^-7 mol to 3×10^-4 mol of histamine was allowed to act accumulatively to depict the curve of the dosage-reaction relationship. Likewise, the curve of the dosage of histamine-reaction relationship was depicted in the presence of 5×10^-7 mol to 1×10^-6 mol of the test sample which was injected 3 minutes before. The negative logarithm (pA2) of the molar concentration of the test sample required for moving the curve obtained by single administration of histamine parallel to the right side by a two-times concentration was calculated.

A further series relates to Mice. Kind of series: Acute toxicity test on mice dosed orally. The format is in vivo. Particulars: orally, mice. How it is done:
as §3, §4

[4] abbreviates: P.O., 14 days observation, Litchfield and Wilcoxon Method, read-out: Median lethal dose (LD50).

Where two headings read alike, the source gives them in different places. A value given as a limit tells only on which side of the number the result lay.

T1 sequence (P47747 whole entry): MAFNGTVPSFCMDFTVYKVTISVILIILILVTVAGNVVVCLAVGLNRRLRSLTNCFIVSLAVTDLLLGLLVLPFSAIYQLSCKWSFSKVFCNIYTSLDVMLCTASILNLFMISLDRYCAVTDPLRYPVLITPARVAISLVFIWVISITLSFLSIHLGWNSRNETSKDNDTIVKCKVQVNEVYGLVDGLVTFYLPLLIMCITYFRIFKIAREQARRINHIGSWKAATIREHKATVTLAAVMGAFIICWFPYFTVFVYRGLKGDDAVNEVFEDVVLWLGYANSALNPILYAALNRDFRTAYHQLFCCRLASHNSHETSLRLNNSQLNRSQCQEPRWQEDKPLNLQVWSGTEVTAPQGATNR

As a reminder, the ED50 is the dose that gives a 50% effect, or the effect in half of the subjects. The term LD50 denotes the dose at which mortality reaches 50%. With `Nc1c(NC/C=C\COc2cc(CN3CCCCC3)ccn2)c(=O)c1=O` [Ex. 1, 1-amino-2-[4-<4-(1-piperidinomethyl)pyridyl-2-oxy>-cis-2-butenylamino]-1-cyclobuten-3,4-dione], the inhibition in vivo at 0.2 mg/kg in series [1] worked out at 54%. Also, in series [2] (first series (Table 2-1)), the ED50 was found to be 0.15 mg/kg. Moreover, the LD50 at 336 h in series [3] was > 1500 mg/kg. For the same molecule, at Histamine H2 -Receptor, the Kb is 339 nM.

In the case of `CNc1c(NC/C=C\COc2cc(CN3CCCCC3)ccn2)c(=O)c1=O` [Ex. 2, 1-methylamino-2-[4-<4-(1-piperidinomethyl)pyridyl-2-oxy>-cis-2-butenylamino]-1-cyclobuten-3,4-dione], in series [1], the inhibition in vivo at 0.2 mg/kg was found to be 60%. Also, the ED50 in series [2] (first series (Table 2-1)) came out at 0.27 mg/kg. The “Efficacy Ratio relative to Cimetidine (Cimetidine = 1)” value (“Efficacy Ratio relative to Cimetidine” below) in series [2] came to 25.9. Also, the LD50 at 336 h in series [3] (setting [4]) was > 1500 mg/kg. Moreover, at Histamine H2 -Receptor, the Kb is 174 nM.

Take `Nc1n[s+]([O-])nc1NC/C=C/COc1cc(CN2CCCCC2)ccn1` (stereo not drawn) [Ex. 9, 3-amino-4-[4-<4-(1-piperidinomethyl)pyridyl-2-oxy>-trans-2-butenylamino]-1,2,5-thiadiazole-1-oxide]: the inhibition in vivo at 0.2 mg/kg in series [1] turned out to be 62%. For the same molecule, in series [2] (first series (Table 2-1)), the ED50 came to 0.46 mg/kg. Further, the “Efficacy Ratio relative to Cimetidine” value in series [2] was 15.2. The LD50 at 336 h in series [3] (setting [4]) was > 1500 mg/kg. The Kb at Histamine H2 -Receptor was 339 nM.

As for `CN(C)Cc1ccnc(OC/C=C\CNc2n[s+]([O-])nc2N)c1` (stereo not drawn) [Ex. 11, 3-amino-4-<4-(4-dimethylaminomethylpyridyl-2-oxy)-cis-2-butenylamino>-1,2,5-thiadiazole-1-oxide], the inhibition in vivo at 0.2 mg/kg in series [1] amounted to 101%. Besides, in series [3] (setting [4]), the LD50 at 336 h is > 1500 mg/kg. Moreover, at Histamine H2 -Receptor, the Kb was 490 nM.

Turning to `CNc1n[s+]([O-])nc1NC/C=C\COc1cc(CN(C)C)ccn1` (stereo not drawn) [Ex. 12, 3-methylamino-4-<4-(4-dimethylaminomethylpyridyl-2-oxy)-cis-2-butenylamino>-1,2,5-thiadiazole-1-oxide], the inhibition in vivo at 0.2 mg/kg in series [1] came to 91%. For the same molecule, in series [3] (setting [4]), the LD50 at 336 h is > 1500 mg/kg. Moreover, the Kb at Histamine H2 -Receptor was 263 nM.

With `Nc1nnc(NC/C=C\COc2cc(CN3CCCCC3)ccn2)s1` [Ex. 17, 2-amino-5-[4-<4-(1-piperidinomethyl)pyridyl-2-oxy>-cis-2-butenylamino]-1,3,4-thiadiazole], the inhibition in vivo at 0.2 mg/kg in series [1] turned out to be 69%. Moreover, the ED50 in series [2] (first series (Table 2-1)) stood at 0.14 mg/kg. Moreover, the “Efficacy Ratio relative to Cimetidine” value in series [2] amounted to 50.0. Besides, the Kb on Histamine H2 -Receptor was 204 nM.

`Cn1nc(N)nc1NC/C=C\COc1cc(CN2CCCCC2)ccn1` [Ex. 19, 3-amino-1-methyl-5-[4-<4-(1-piperidinomethyl)pyridyl-2-oxy>-cis-2-butenylamino]-1H-1,2,4-triazole]: in series [1], the inhibition in vivo at 0.2 mg/kg was 3%. Moreover, the LD50 at 336 h in series [3] (setting [4]) is > 1500 mg/kg. For the same molecule, the Kb on Histamine H2 -Receptor is 759 nM.

For `O=c1nc(NC/C=C\COc2cc(CN3CCCCC3)ccn2)[nH]cc1Cc1cccnc1` [Ex. 22, 2-[4-<4-(1-piperidinomethyl)pyridyl-2-oxy>-cis-2-butenylamino]-5-(3-pyridylmethyl)-1H-pyrimidin-4-one], the inhibition in vivo at 0.2 mg/kg in series [1] was 40%. Besides, the “acute toxicity / LD50 (in words)” value with Mice is “lower LD50 values than that of Cimetidine”. In series [3] (setting [4]), the LD50 at 336 h came to 1600 mg/kg. Moreover, the Kb on Histamine H2 -Receptor was 363 nM.

Regarding `O=c1nc(NC/C=C\COc2cc(CN3CCCCC3)ccn2)[nH]nc1Cc1cccnc1` [Ex. 25, 3-[4-<4-(1-piperidinomethyl)pyridyl-2-oxy>-cis-2-butenylamino]-6-(3-pyridylmethyl)-1,2,4-triazin-5-one], the inhibition in vivo at 0.2 mg/kg in series [1] was determined as 55%. For the same molecule, the ED50 in series [2] (first series (Table 2-1)) was found to be 0.14 mg/kg. Besides, in series [2], the “Efficacy Ratio relative to Cimetidine” value turned out to be 50.0. Moreover, on Histamine H2 -Receptor, the Kb is 170 nM.

As to `Nc1n[nH]c(=O)nc1NC/C=C\COc1cc(CN2CCCCC2)ccn1` [Ex. 27, 6-amino-5-[4-<4-(1-piperidinomethyl)pyridyl-2-oxy>-cis-2-butenylamino]-1,2,4-triazin-3-one], in series [1], the inhibition in vivo at 0.2 mg/kg came out at 88%. In series [3] (setting [4]), the LD50 at 336 h is > 1500 mg/kg. For the same molecule, the Kb at Histamine H2 -Receptor is 275 nM.

For the molecule `Cn1nc(N)c(NC/C=C\COc2cc(CN3CCCCC3)ccn2)nc1=O` [Ex. 29, 6-amino-2-methyl-5-[4-<4-(1-piperidinomethyl)pyridyl-2-oxy>-cis-2-butenylamino]-1,2,4-triazin-3-one], the inhibition in vivo at 0.2 mg/kg in series [1] is 74%. The “acute toxicity / LD50 (in words)” value in the series with Mice is given as “lower LD50 values than that of Cimetidine”. The LD50 at 336 h in series [3] (setting [4]) was determined as 1250 mg/kg. On Histamine H2 -Receptor, the Kb was 708 nM.

In the case of `Nc1c(NC/C=C\COc2cccc(CN3CCCCC3)n2)c(=O)c1=O` [Ex. 32, 1-amino-2-[4-<6-(1-piperidinomethyl)pyridyl-2-oxy>-cis-2-butenylamino]-1-cyclobuten-3,4-dione], the inhibition in vivo at 0.2 mg/kg in series [1] was 33%. In series [2] (second series (Table 2-2)), the ED50 was 0.25 mg/kg. For the same molecule, the “Efficacy Ratio relative to Cimetidine” value in series [2] stood at 32.8. The Kb at Histamine H2 -Receptor was 490 nM.

For the molecule `NC1=NS(=O)(=O)N=C1NC/C=C\COc1cccc(CN2CCCCC2)n1` [Ex. 36, 3-amino-4-[4-<6-(1-piperidinomethyl)pyridyl-2-oxy>-cis-2-butenylamino]-1,2,5-thiadiazole-1,1-dioxide], in series [1], the inhibition in vivo at 0.2 mg/kg worked out at 72%. Further, the ED50 in series [2] (second series (Table 2-2)) is 0.2 mg/kg. Moreover, the “Efficacy Ratio relative to Cimetidine” value in series [2] came to 41.0. Moreover, the Kb on Histamine H2 -Receptor is 263 nM.
